From patent US20160376240A1, “6 Phenyl or 6 Pyridin 3 YL Indazole Derivatives and Methods of Use” (ABBVIE INC., priority 2014, published 2016)

Assays:
Format in all cases: biochemical
TrkC = target: T1, TrkC (Homo sapiens, UniProt Q16288); test: TrkC kinase inhibition, HTRF assay; conditions: LCK peptide substrate, assay ATP concentration targeted 5 μM
T1 construct: purchased Invitrogen PV3617
Protocol: (§1) TrkA, TrkB, and TrkC enzymes were obtained from Invitrogen (as catalog numbers PV3144, PV3616, and PV3617, respectively). The ability of a compound to inhibit the enzymatic activity of the TrkA, TrkB, and TrkC enzymes was determined in separate assays. Enzyme activity was measured in an HTRF® (homogeneous time resolved fluorescence) assay, which detects enzymatic phosphorylation of a biotinylated synthetic peptide substrate (an LCK peptide analog, biotin-ahx-GAEEEIYAAFFA, from Genemed Synthesis). Phosphorylation is assessed by HTRF® in the presence of an anti-phosphotyrosine antibody conjugated to Eu^3+ cryptate (Cisbio) as donor fluorophore, and streptavidin conjugated to allophycocyanin (ProZyme) as acceptor fluorophore. The HTRF® signal was detected at two different wavelengths (620 nm and 665 nm) which were used to calculate the fluorescence ratio.
(§2) Each enzyme was titrated to a concentration optimized to ensure accurate measurement of the initial reaction rate. To allow the Trk enzymes to undergo activation and auto-phosphorylation, a 20 minute pre-incubation with ATP was carried out (at twice the final targeted enzyme and ATP concentration) prior to addition of test compound and the peptide substrate.
(§3) TrkA in vitro assays were performed by pre-incubating TrkA (2-10 nM) with ATP (200 μM) for 20 minutes at ambient temperature in 50 mM HEPES pH 7.4, 10 mM MgCl2, 2 mM MnCl2, 100 μM Na3VO4, 1 mM dithiothreitol, 0.01% BSA (bovine serum albumin). Then, to the activated Trk enzyme mixture was added the test compound in 2% dimethyl sulfoxide. After 10 minutes, the peptide substrate (125 nM) was added. After 1 hour, enzyme reactions were terminated by addition of equal reaction volumes of detection/stop reagent (containing 0.2 μg/mL anti-phosphotyrosine monoclonal antibody labeled with europium from Cisbio (catalog# PT66-K), and 4 μg/mL PhycoLink® Streptavidin-Allophycocyanin conjugate from ProZyme (catalog# PJ25S) in 60 mM EDTA in 40 mM HEPES pH 7.4, 480 mM KF, 0.01% Tween® 20 and 0.1% BSA bovine serum albumin) Reaction plates were stored at 4° C. overnight before reading the fluorescence ratio signal on a PerkinElmer EnVision™ fluorescence detector. Individual reaction wells were stopped at time points to obtain reaction rates. The test inhibitor compounds were assayed in duplicate, at half-log serial dilutions over a range of concentrations (e.g. starting at 50 μM or 5 μM as the high compound concentration). The percent Trk enzyme inhibition was calculated from the initial rates of the inhibited reactions relative to the uninhibited control. IC50 values were calculated by fitting the inhibition percent to the concentration of inhibitor [I] in the assay in equation 1 below, to solve for the IC50.
(§4) Inhibition %=100[I]/([I]+[IC50]) equation 1
(§5) The TrkB and TrkC in vitro assays were performed as described above, except that for these enzymes the assay ATP concentration targeted was 5 μM.

TrkA = target: T2, TrkA (Homo sapiens, UniProt P04629); test: TrkA kinase inhibition, HTRF assay; conditions: LCK peptide substrate 125 nM, TrkA 2-10 nM pre-incubated with ATP 200 μM
T2 construct: purchased Invitrogen PV3144
How it was run: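 TrkA (2-10 nM) preactivated 20 min with 200 μM ATP in HEPES pH 7.4 with Mg2+/Mn2+, then compound for 10 min, then 125 nM biotinylated LCK-peptide for 1 h at ambient temperature. HTRF 665/620 ratio read; IC50 fitted from initial-rate percent inhibition.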

TrkB = target: T3, TrkB (Homo sapiens, UniProt Q16620); test: TrkB kinase inhibition, HTRF assay; conditions: LCK peptide substrate, assay ATP concentration targeted 5 μM
T3 construct: purchased Invitrogen PV3616
Protocol: as §1, §2, §3, §4, §5

T3 sequence (Q16620 32-822): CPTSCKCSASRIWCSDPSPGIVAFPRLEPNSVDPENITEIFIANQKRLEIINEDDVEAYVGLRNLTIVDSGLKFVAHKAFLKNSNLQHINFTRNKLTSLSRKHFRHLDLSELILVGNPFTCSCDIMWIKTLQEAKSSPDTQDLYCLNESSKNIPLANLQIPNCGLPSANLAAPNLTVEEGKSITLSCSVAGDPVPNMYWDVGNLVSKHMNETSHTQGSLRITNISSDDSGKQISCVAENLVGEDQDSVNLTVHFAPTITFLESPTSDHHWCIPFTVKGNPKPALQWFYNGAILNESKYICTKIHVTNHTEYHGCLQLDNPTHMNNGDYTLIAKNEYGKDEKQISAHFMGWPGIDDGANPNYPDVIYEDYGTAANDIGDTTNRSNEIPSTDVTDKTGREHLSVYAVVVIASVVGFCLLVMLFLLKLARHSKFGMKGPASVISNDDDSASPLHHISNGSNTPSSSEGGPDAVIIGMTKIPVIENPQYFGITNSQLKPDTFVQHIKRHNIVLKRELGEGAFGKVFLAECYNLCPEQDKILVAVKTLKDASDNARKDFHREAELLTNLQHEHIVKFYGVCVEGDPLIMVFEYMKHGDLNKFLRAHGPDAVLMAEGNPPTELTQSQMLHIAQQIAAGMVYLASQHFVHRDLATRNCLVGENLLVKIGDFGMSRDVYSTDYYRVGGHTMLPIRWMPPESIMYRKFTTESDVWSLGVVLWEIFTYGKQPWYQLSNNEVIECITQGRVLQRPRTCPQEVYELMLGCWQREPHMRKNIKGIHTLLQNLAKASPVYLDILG
T1 sequence (Q16288 32-839): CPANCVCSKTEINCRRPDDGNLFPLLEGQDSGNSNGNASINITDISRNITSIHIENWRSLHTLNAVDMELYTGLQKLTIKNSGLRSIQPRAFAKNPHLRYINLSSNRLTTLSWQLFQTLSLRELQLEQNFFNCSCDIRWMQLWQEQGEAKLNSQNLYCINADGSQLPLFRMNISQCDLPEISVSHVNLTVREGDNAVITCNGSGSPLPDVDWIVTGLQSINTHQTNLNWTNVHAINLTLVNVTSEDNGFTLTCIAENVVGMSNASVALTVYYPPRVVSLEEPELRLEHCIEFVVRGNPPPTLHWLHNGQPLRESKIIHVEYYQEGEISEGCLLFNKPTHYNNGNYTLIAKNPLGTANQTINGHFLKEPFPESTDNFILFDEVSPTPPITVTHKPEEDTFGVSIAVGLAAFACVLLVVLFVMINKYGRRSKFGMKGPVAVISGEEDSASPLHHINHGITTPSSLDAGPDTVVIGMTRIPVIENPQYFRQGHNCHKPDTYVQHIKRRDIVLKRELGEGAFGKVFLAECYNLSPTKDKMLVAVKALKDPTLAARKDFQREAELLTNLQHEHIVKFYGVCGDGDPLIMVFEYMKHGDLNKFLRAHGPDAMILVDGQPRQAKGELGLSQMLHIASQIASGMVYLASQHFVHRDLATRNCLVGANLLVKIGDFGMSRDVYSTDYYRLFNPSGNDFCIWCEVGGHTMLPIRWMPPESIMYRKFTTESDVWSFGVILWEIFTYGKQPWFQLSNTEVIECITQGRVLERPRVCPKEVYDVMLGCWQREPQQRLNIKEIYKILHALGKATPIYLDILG
T2 sequence (P04629 33-796): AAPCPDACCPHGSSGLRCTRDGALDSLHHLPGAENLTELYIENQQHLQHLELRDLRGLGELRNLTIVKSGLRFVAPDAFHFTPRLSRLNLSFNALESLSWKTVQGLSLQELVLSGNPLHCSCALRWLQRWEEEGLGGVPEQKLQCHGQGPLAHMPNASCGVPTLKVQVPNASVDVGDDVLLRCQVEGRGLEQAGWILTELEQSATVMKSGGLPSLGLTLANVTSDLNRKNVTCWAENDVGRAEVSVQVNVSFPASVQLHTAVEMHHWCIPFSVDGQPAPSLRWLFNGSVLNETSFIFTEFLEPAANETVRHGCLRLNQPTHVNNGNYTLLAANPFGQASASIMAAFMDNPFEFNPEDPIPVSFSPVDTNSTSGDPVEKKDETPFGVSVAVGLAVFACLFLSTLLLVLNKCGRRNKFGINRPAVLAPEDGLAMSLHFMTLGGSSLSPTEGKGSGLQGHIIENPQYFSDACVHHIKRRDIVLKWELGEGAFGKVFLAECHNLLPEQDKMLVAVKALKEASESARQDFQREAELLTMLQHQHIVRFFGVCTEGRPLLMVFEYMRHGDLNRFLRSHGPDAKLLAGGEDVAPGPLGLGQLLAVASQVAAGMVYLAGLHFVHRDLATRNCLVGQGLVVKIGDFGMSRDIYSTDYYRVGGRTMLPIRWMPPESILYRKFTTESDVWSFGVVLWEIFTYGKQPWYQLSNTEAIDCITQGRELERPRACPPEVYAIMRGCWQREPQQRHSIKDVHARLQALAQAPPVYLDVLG

IC50 (TrkC)	IC50 (TrkA)	IC50 (TrkB)	Structure (SMILES)
3.53 nM	13.7 nM	3.17 nM	CC(C)(C)OC(=O)N1CCN(c2cc(-c3cc(OC4CCCC4)c4c(N)n[nH]c4c3)ccc2C(N)=O)CC1 [Example 73, tert-butyl 4-{5-[3-amino-4-(cyclopentyloxy)-1H-indazol-6-yl]-2-carbamoylphenyl}piperazine-1-carboxylate]
23.7 nM	42.1 nM	15 nM	COc1cncnc1N1CCN(c2cc(-c3cc(OC4CCOCC4)c4c(N)n[nH]c4c3)ccc2C(N)=O)CC1 [Example 6, 4-[3-amino-4-(tetrahydro-2H-pyran-4-yloxy)-1H-indazol-6-yl]-2-[4-(5-methoxypyrimidin-4-yl)piperazin-1-yl]benzamide]
2.58 nM	2.73 nM	1.63 nM	CNC(=O)c1ccc(-c2cc(OC3CCOCC3)c3c(N)n[nH]c3c2)cc1N1CCN(CC2CCCC2)CC1 [Example 110, 4-[3-amino-4-(tetrahydro-2H-pyran-4-yloxy)-1H-indazol-6-yl]-2-[4-(cyclopentylmethyl)piperazin-1-yl]-N-methylbenzamide]
1.5 nM	10.4 nM	1.5 nM	CNC(=O)c1ccc(-c2cc(OC3CCOCC3)c3c(N)n[nH]c3c2)cc1N1CCN(c2ccccc2)CC1 [Example 30, 4-[3-amino-4-(tetrahydro-2H-pyran-4-yloxy)-1H-indazol-6-yl]-N-methyl-2-(4-phenylpiperazin-1-yl)benzamide]
5.35 nM	17.5 nM	4.92 nM	NC(=O)c1ccc(-c2cc(OC3CCCC3)c3c(N)n[nH]c3c2)cc1N1CCN(c2ccc(F)cc2)CC1 [Example 72, 4-[3-amino-4-(cyclopentyloxy)-1H-indazol-6-yl]-2-[4-(4-fluorophenyl)piperazin-1-yl]benzamide]
3.85 nM	7.4 nM	3.09 nM	NC(=O)c1ccc(-c2cc(OC3CCOCC3)c3c(N)n[nH]c3c2)cc1N1CCN(c2cccnc2)CC1 [Example 2, 4-[3-amino-4-(tetrahydro-2H-pyran-4-yloxy)-1H-indazol-6-yl]-2-[4-(pyridin-3-yl)piperazin-1-yl]benzamide]
37.1 nM	80 nM	27.8 nM	CNC(=O)c1ccc(-c2cc(O[C@H](C)C(F)(F)F)c3c(N)n[nH]c3c2)cc1N1CCN(C2CCCCC2)CC1 [Example 56, 4-(3-amino-4-{[(2R)-1,1,1-trifluoropropan-2-yl]oxy}-1H-indazol-6-yl)-2-(4-cyclohexylpiperazin-1-yl)-N-methylbenzamide]
305 nM	377 nM	317 nM	CC(C)N1CCN(c2cc(-c3cc(OC(C)C(F)(F)F)c4c(N)n[nH]c4c3)ccc2C(N)=O)CC1 (stereo not shown) [Example 101, 4-{3-amino-4-[(1,1,1-trifluoropropan-2-yl)oxy]-1H-indazol-6-yl}-2-(4-isopropylpiperazin-1-yl)benzamide]
1.67 nM	4.92 nM	1.5 nM	NC(=O)c1ccc(-c2cc(OC3CCCC3)c3c(N)n[nH]c3c2)cc1N1CCN(c2ccccc2)CC1 [Example 71, 4-[3-amino-4-(cyclopentyloxy)-1H-indazol-6-yl]-2-(4-phenylpiperazin-1-yl)benzamide]
158 nM	51.1 nM	84.4 nM	CC(=O)N1CCN(c2cc(-c3cc(OC4CCCC4)c4c(N)n[nH]c4c3)ccc2C(N)=O)CC1 [Example 77, 2-(4-acetylpiperazin-1-yl)-4-[3-amino-4-(cyclopentyloxy)-1H-indazol-6-yl]benzamide]
2.89 nM	5.31 nM	2.01 nM	CC(Oc1cc(-c2ccc(C(N)=O)c(N3CCN(c4cccnc4)CC3)c2)cc2[nH]nc(N)c12)C(F)(F)F (stereo not shown) [Example 91, 4-{3-amino-4-[(1,1,1-trifluoropropan-2-yl)oxy]-1H-indazol-6-yl}-2-[4-(pyridin-3-yl)piperazin-1-yl]benzamide]
300 nM	232 nM	268 nM	CNC(=O)c1ccc(-c2cc(O[C@@H](C)C(F)(F)F)c3c(N)n[nH]c3c2)cc1N1CCN(C2CCCCC2)CC1 [Example 47, 4-(3-amino-4-{[(2S)-1,1,1-trifluoropropan-2-yl]oxy}-1H-indazol-6-yl)-2-(4-cyclohexylpiperazin-1-yl)-N-methylbenzamide]
1.03 nM	2.66 nM	0.786 nM	NC(=O)c1ccc(-c2cc(OC3CCOCC3)c3c(N)n[nH]c3c2)cc1N1CCN(c2ccccc2)CC1 [Example 1, 4-[3-amino-4-(tetrahydro-2H-pyran-4-yloxy)-1H-indazol-6-yl]-2-(4-phenylpiperazin-1-yl)benzamide]
8.53 nM	15 nM	8.04 nM	Nc1n[nH]c2cc(-c3ccc(C(=O)NC4CC4)c(N4CCN(c5ccccc5)CC4)c3)cc(OC3CCOCC3)c12 [Example 23, 4-[3-amino-4-(tetrahydro-2H-pyran-4-yloxy)-1H-indazol-6-yl]-N-cyclopropyl-2-(4-phenylpiperazin-1-yl)benzamide]
145 nM	34.9 nM	83.7 nM	NC(=O)c1ccc(-c2cc(OC3CCCC3)c3c(N)n[nH]c3c2)cc1N1CCN(CCN2CCOCC2)CC1 [Example 70, 4-[3-amino-4-(cyclopentyloxy)-1H-indazol-6-yl]-2-{4-[2-(morpholin-4-yl)ethyl]piperazin-1-yl}benzamide]
105 nM	59.5 nM	91.9 nM	CNC(=O)c1ccc(-c2cc(OC(C)C(F)(F)F)c3c(N)n[nH]c3c2)cc1N1CCN(C2CCCCC2)CC1 (stereo not shown) [Example 35, 4-{3-amino-4-[(1,1,1-trifluoropropan-2-yl)oxy]-1H-indazol-6-yl}-2-(4-cyclohexylpiperazin-1-yl)-N-methylbenzamide]
–	173 nM	–	NC(=O)c1ccc(-c2cc(O[C@H]3CCOC3)c3c(N)n[nH]c3c2)cc1N1CCN(C2CC2)CC1 [Example 65, 4-{3-amino-4-[(3S)-tetrahydrofuran-3-yloxy]-1H-indazol-6-yl}-2-(4-cyclopropylpiperazin-1-yl)benzamide]
–	7.48 nM	–	CNC(=O)c1ccc(-c2cc(OC3CCOCC3)c3c(C)n[nH]c3c2)cc1N1CCN(S(=O)(=O)c2ccc(C)cc2)CC1 [Example 152, N-methyl-2-{4-[(4-methylphenyl)sulfonyl]piperazin-1-yl}-4-[3-methyl-4-(tetrahydro-2H-pyran-4-yloxy)-1H-indazol-6-yl]benzamide]
–	121 nM	–	CNC(=O)c1ccc(-c2cc(O[C@H](C)C(F)(F)F)c3c(N)n[nH]c3c2)cc1N1CCN(c2cnccn2)CC1 [Example 55, 4-(3-amino-4-{[(2R)-1,1,1-trifluoropropan-2-yl]oxy}-1H-indazol-6-yl)-N-methyl-2-[4-(pyrazin-2-yl)piperazin-1-yl]benzamide]
–	20.1 nM	–	NC(=O)c1ccc(-c2cc(OC3CCCC3)c3c(N)n[nH]c3c2)cc1N1CCN(C2CC2)CC1 [Example 78, 4-[3-amino-4-(cyclopentyloxy)-1H-indazol-6-yl]-2-(4-cyclopropylpiperazin-1-yl)benzamide]
–	101 nM	–	CC(=O)c1ccc(-c2cc(OC3CCOCC3)c3c(N)n[nH]c3c2)cc1N1CCN(C(=O)C2CC2)CC1 [Example 20, 1-{4-[3-amino-4-(tetrahydro-2H-pyran-4-yloxy)-1H-indazol-6-yl]-2-[4-(cyclopropylcarbonyl)piperazin-1-yl]phenyl}ethanone]
–	34.1 nM	–	Cc1n[nH]c2cc(-c3ccc(C(N)=O)cc3)cc(OC3CCOCC3)c12 [Example 132, 4-[3-methyl-4-(tetrahydro-2H-pyran-4-yloxy)-1H-indazol-6-yl]benzamide]
–	25.8 nM	–	CNC(=O)c1ccc(-c2cc(OC(C)C(F)(F)F)c3c(N)n[nH]c3c2)cc1N1CCN(c2cccnc2)CC1 (stereo not shown) [Example 36, 4-{3-amino-4-[(1,1,1-trifluoropropan-2-yl)oxy]-1H-indazol-6-yl}-N-methyl-2-[4-(pyridin-3-yl)piperazin-1-yl]benzamide]
